This passage reports DDA results from patent publication US20100291168A1, “ANTIMICROBIAL FORMULATIONS COMPRISING A COMBINATION OF A PYRIDINE THIOL AND A BIS-QUINOLINIUM SALT” (priority 2007, published 2010).

The test system of test [1] is C. difficile ATCC 7000057. Briefly: (S)DDA. Format: cell-based, Clostridium difficile. The conditions noted are these: 50 μg DC or 200 μg ZP per disc. How it is done: The activity of a DC/ZP combination was determined, using (S)DDAs, against two further test micro-organisms, namely C. difficile ATCC 7000057 and Cor. mucifaciens ATCC 700355. A DI/ZP combination was also tested against Cor. mucifaciens.
In these tests, 50 μg (for C. difficile) or 200 μg (for Cor. mucifaciens) of the DC was loaded onto each disc. The DI and the ZP were both loaded at 200 μg per disc. All the (S)DDA experiments were conducted in triplicate.

A further test deals with P. acnes PRP-101. Type of test: cell-based, Propionibacterium acnes. The conditions noted are these: P. acnes PRP-101 (Tet/MLS); 50 μg DC or 200 μg ZP per disc. The protocol:
(§1) Some of these strains have known antibiotic resistance.
(§2) All the experiments were conducted in triplicate.

Another test concerns P. acnes PRP-053. Type of test: cell-based, Propionibacterium acnes. The conditions noted are these: P. acnes PRP-053 (Tet/MLS); 50 μg DC or 200 μg ZP per disc. The protocol:
as §1, §2

The subject of another test is P. acnes PRP-068. Type of test: cell-based, Propionibacterium acnes. The conditions noted are these: P. acnes PRP-068 (Ery); 50 μg DC or 200 μg ZP per disc. How it is done: as §1, §2
The next test relates to P. acnes PRP-102. Type of test: cell-based, Propionibacterium acnes. The conditions noted are these: P. acnes PRP-102 (Tet/MLS); 50 μg DC or 200 μg ZP per disc. The protocol:
as §1, §2

A further test concerns P. acnes PRP-003. Type of test: cell-based, Propionibacterium acnes. The conditions noted are these: P. acnes PRP-003 (Tet); 50 μg DC or 200 μg ZP per disc. The protocol:
as §1, §2

The test system of the next test is P. acnes PRP-023. Format: cell-based, Propionibacterium acnes. The following applies: P. acnes PRP-023 (MLSK); 50 μg DC or 200 μg ZP per disc. How it is done: as §1, §2
A further test deals with P. acnes PRP-008. Format: cell-based, Propionibacterium acnes. The conditions noted are these: P. acnes PRP-008 (Clin); 50 μg DC or 200 μg ZP per disc. The protocol: as §1, §2
For another test, the system named is P. acnes PRP-004. Format: cell-based, Propionibacterium acnes. The following applies: P. acnes PRP-004 (Tet); 50 μg DC or 200 μg ZP per disc. The protocol: as §1, §2
A further test has as its system P. acnes PRP-017. Type of test: cell-based, Propionibacterium acnes. The following applies: P. acnes PRP-017 (MLS); 50 μg DC or 200 μg ZP per disc. How it is done:
as §1, §2

The subject of a further test is P. acnes PRP-059. Format: cell-based, Propionibacterium acnes. The following applies: P. acnes PRP-059 (MLS); 50 μg DC or 200 μg ZP per disc. How it is done: as §1, §2
Another test has as its system P. acnes PRP-026. Format: cell-based, Propionibacterium acnes. The following applies: P. acnes PRP-026 (MLS); 50 μg DC or 200 μg ZP per disc. The protocol: as §1, §2
The subject of a further test is P. acnes PRP-002. Type of test: cell-based, Propionibacterium acnes. The following applies: P. acnes PRP-002 (Tet/MLS); 50 μg DC or 200 μg ZP per disc. The protocol: as §1, §2
The subject of another test is P. acnes NCTC 737. Briefly: Disc diffusion / synergy disc diffusion assay ((S)DDA). Type of test: cell-based, Propionibacterium acnes. The protocol:
The propionibacteria were cultured and maintained on Wilkins-Chalgren Anaerobe Medium (agar and broth) at pH 6.0; all cultures were incubated anaerobically at 37° C. for 72 hours.
(c) Disc Diffusion Assay (DDA)
This is an internationally recognised standard method for qualitatively assessing the antimicrobial activity of a compound.
A sterile paper disc was impregnated with a sample of the test compound in a suitable solvent and 30 minutes allowed for the solvents to evaporate (where possible). The disc was then placed on an agar plate onto which the test micro-organism had been inoculated. The plate was then incubated under the conditions described above, following which it was examined visually for signs of microbial growth. […] The diameter of this zone of “inhibition” was measured using a ProtoCOL™ automated zone sizer (Synbiosis, Cambridge, UK).
(d) Synergy Disc Diffusion Assay (SDDA)
This is a variation on the DDA method, in which two compounds are tested together for their combined antimicrobial activity.
Two test compounds A and B were placed on a single paper disc and the above described DDA procedure repeated.
Mixtures of the two test compounds were then subjected to SDDA assays as described above.
For the (S)DDA experiments, 50 μg of the DC was loaded onto each disc, and 200 μg of the ZP. All the (S)DDA experiments were conducted in triplicate.
For the (S)DDA experiments, 50 μg of the DI was loaded onto each disc, and 200 μg of the ZP. The DI and ZP were both dissolved in DMSO.
All the (S)DDA experiments were conducted in triplicate.
A general note: Agar diffusion results depend on both activity and mobility in agar.

The next test deals with P. granulosum PRP-019. Format: cell-based, Propionibacterium granulosum. The conditions noted are these: P. granulosum PRP-019 (MLSK); 50 μg DC or 200 μg ZP per disc. The protocol: as §1, §2
In a further test the test system is P. granulosum PRP-044. Type of test: cell-based, Propionibacterium granulosum. The conditions noted are these: P. granulosum PRP-044 (MLS); 50 μg DC or 200 μg ZP per disc. The protocol:
as §1, §2

The next test deals with P. granulosum PRP-005. Type of test: cell-based, Propionibacterium granulosum. The following applies: P. granulosum PRP-005 (MLSK); 50 μg DC or 200 μg ZP per disc. How it is done: as §1, §2
For another test, the system named is P. granulosum PRP-006. Type of test: cell-based, Propionibacterium granulosum. The following applies: P. granulosum PRP-006 (MLS); 50 μg DC or 200 μg ZP per disc. How it is done:
as §1, §2

A further test relates to P. granulosum PRP-021. Type of test: cell-based, Propionibacterium granulosum. The conditions noted are these: P. granulosum PRP-021 (MLS); 50 μg DC or 200 μg ZP per disc. How it is done:
as §1, §2

A further test deals with P. granulosum PRP-043. Format: cell-based, Propionibacterium granulosum. The following applies: P. granulosum PRP-043 (MLS); 50 μg DC or 200 μg ZP per disc. The protocol: as §1, §2
The mark [2] stands for this setting: Example 1, zone of inhibition diameter, 50 μg DC or 200 μg ZP per disc.

In the case of `Cc1cc(N)c2ccccc2[n+]1CCCCCCCCCC[n+]1c(C)cc(N)c2ccccc21.[Cl-].[Cl-]` [DC, dequalinium chloride], the DDA was determined as 0.0 mm in test [1]; 16.96 mm in the test with P. acnes PRP-101; 21.38 mm in the test on P. acnes PRP-053; 20.45 mm in the test on P. acnes PRP-068; 21.68 mm with P. acnes PRP-102; 21.27 mm with P. acnes PRP-003. Besides, the DDA with P. acnes PRP-023 turned out to be 19.32 mm; in the test on P. acnes PRP-008 it was 19.73 mm; in the test with P. acnes PRP-004, 20.45 mm; with P. acnes PRP-017 it was 17.27 mm; in the test with P. acnes PRP-059, 19.42 mm; in the test with P. acnes PRP-026, 19.01 mm. Also, the DDA with P. acnes PRP-002 is on record as 20.04 mm; in the test with P. acnes NCTC 737 (setting [2]) it was 16.68 mm; with P. granulosum PRP-019 it was 18.91 mm; in the test with P. granulosum PRP-044, 17.37 mm; in the test on P. granulosum PRP-005 it was 20.55 mm; in the test with P. granulosum PRP-006 it was 26.82 mm. Moreover, the DDA is 27.95 mm in the test with P. granulosum PRP-021 and 23.02 mm in the test with P. granulosum PRP-043.
Take zinc pyrithione [ZP]: the DDA in test [1] is listed as 20.31 mm; with P. acnes PRP-101, 14.39 mm; with P. acnes PRP-053, 29.91 mm; with P. acnes PRP-068, 14.90 mm; in the test with P. acnes PRP-102, 16.85 mm; in the test on P. acnes PRP-003, 26.82 mm. In addition, the DDA was 17.37 mm with P. acnes PRP-023; 14.90 mm in the test with P. acnes PRP-008; 12.43 mm in the test on P. acnes PRP-004; 19.01 mm in the test on P. acnes PRP-017; 16.34 mm in the test on P. acnes PRP-059; 16.24 mm with P. acnes PRP-026. Also, the DDA with P. acnes PRP-002 is listed as 25.79 mm; in the test on P. acnes NCTC 737 (setting [2]) it was 15.85 mm; with P. acnes NCTC 737 (Example 3, zone of inhibition diameter, 50 μg DI or 200 μg ZP per disc, both in DMSO), 46.44 mm; with P. granulosum PRP-019, 19.73 mm; in the test with P. granulosum PRP-044 it was 18.50 mm; in the test on P. granulosum PRP-005, 20.04 mm. The DDA worked out at 32.58 mm in the test on P. granulosum PRP-006, 29.70 mm in the test on P. granulosum PRP-021 and 43.37 mm in the test with P. granulosum PRP-043.
